Measurements reported in publication PMC6199744, “Development of Chemical Proteomics for the Folateome and Analysis of the Kinetoplastid Folateome” (ACS Infectious Diseases, 2018).

System: L. major lysate proteins
Assay: Multitargeted bead mixture chemoproteomics, single concentration competition, proteome-wide
Format: binding
Conditions: for fold change: vehicle control = 1

With `NCCCNc1ccc(C(=O)NC(CCC(=O)O)C(=O)O)cc1` (stereo not drawn) [compound 7] the fold change (protein LMJF.15.0040 HYPOTHETICAL PROTEIN, CONSERVED (Possible lysine decarboxylase, putative)) was 0.73, the “fold change vs vehicle control” value (protein LMJF.15.0690 HY[…], CONSERVED) was 1.02 and the fold change (protein LMJF.15.1010 GLUTAMATE DEHYDROGENASE) was 1.04. For the same compound, the fold change (protein LMJF.15.1190 HY[…], CONSERVED (cyclic nucleotide-binding domain containing protein, putative)) was 1.08, the “fold change vs vehicle control” value (protein LMJF.16.0520 HY[…], CONSERVED) was 1.02 and the “fold change vs vehicle control” value (protein LMJF.16.0540 ASPARTATE CARBAMOYLTRANSFERASE, PUTATIVE) was 0.99. The “fold change relative to vehicle control” value (protein LMJF.16.0760, TRANSALDOLASE, PUTATIVE) was 0.99, the “fold change vs vehicle control” value (protein LMJF.16.0940 DYNEIN LIGHT CHAIN, PUTATIVE) was 1.11 and the “fold change relative to vehicle control” value (protein LMJF.16.1180, COATOMER DELTA SUBUNIT-LIKE PROTEIN) was 1.2. The “fold change relative to vehicle control” value (protein LMJF.16.1320, […], PUTATIVE) was 1.34, the “fold change relative to vehicle control” value (protein LMJF.16.1420, HY[…], CONSERVED) was 1.05 and the “fold change relative to vehicle control” value (protein LMJF.17.0081, […] 1-ALPHA) was 1.09. The “fold change relative to vehicle control” value (protein LMJF.18.0270, GLYCOGEN SYNTHASE KINASE, PUTATIVE) was 0.98, the fold change (protein LMJF.18.0580 P[…]-COA HYDRATASE, PUTATIVE) was 1.04 and the “fold change relative to vehicle control” value (protein LMJF.18.0680, CITRATE SYNTHASE, PUTATIVE) was 1.06. The “fold change vs vehicle control” value (protein LMJF.18.1010 DYNEIN LIGHT CHAIN 2B, CYTOPLASMIC, PUTATIVE) was 1.15, the “fold change vs vehicle control” value (protein LMJF.18.1210 PROLYL-TRNA SYNTHETASE, PUTATIVE,BI[…]-TRNA SYNTHETASE, PUTATIVE) was 1.03 and the “fold change vs vehicle control” value (protein LMJF.18.1370 HEAT SHOCK PROTEIN, PUTATIVE) was 1.14. The fold change (protein LMJF.19.0200 ADP,ATP CARRIER PROTEIN 1, MIT[…], PUTATIVE) was 1.08, the “fold change vs vehicle control” value (protein LMJF.19.1120 […]-ATP-ASE SUBUNIT, PUTATIVE) was 1.07 and the “fold change vs vehicle control” value (protein LMJF.19.1160 HYPOTHETICAL PROTEIN, CONSERVED) was 0.99. The “fold change vs vehicle control” value (protein LMJF.19.1560 INOSINE-5'-MONOPHOSPHATE DEHYDROGENASE) was 0.97, the “fold change relative to vehicle control” value (protein LMJF.19.1620, POTASSIUM VOLTAGE-GATED CHANNEL, PUTATIVE) was 1.12 and the “fold change vs vehicle control” value (protein LMJF.20.1280 SMALL MYRISTOYLATED PROTEIN 4, PUTATIVE) was 0.92. For the same compound, the fold change (protein LMJF.21.0810 METHIONYL-TRNA SYNTHETASE, PUTATIVE) was 0.87, the fold change (protein LMJF.21.1450 ARGININE N-METHYLTRANSFERASE, TYPE II, PUTATIVE) was 1.06 and the “fold change vs vehicle control” value (protein LMJF.21.1830 […] 5 SUBUNIT, PUTATIVE,20S […] ALPHA 5, (PUTATIVE)) was 1.01. For the same compound, the fold change (protein LMJF.22.0230 AMINO ACID PERMEASE, PUTATIVE) was 1.14, the “fold change vs vehicle control” value (protein LMJF.22.0570 […] SUBUNIT 1, PUTATIVE) was 1.04 and the “fold change vs vehicle control” value (protein LMJF.22.0730 HYPOTHETICAL PROTEIN, CONSERVED) was 0.96. The fold change (protein LMJF.22.0770 NADH-CYTOCHROME B5 REDUCTASE, PUTATIVE) was 0.85, the “fold change relative to vehicle control” value (protein LMJF.23.0020, HYPOTHETICAL PROTEIN, CONSERVED) was 1.99 and the “fold change relative to vehicle control” value (protein LMJF.23.0040, PEROXIDOXIN) was 0.99. The “fold change relative to vehicle control” value (protein LMJF.23.0080, HYPOTHETICAL PROTEIN, CONSERVED) was 0.99, the fold change (protein LMJF.23.0210 ATP-BINDING CASSETTE PROTEIN SUBFAMILY C, MEMBER 1, PUTATIVE) was 1.03 and the fold change (protein LMJF.23.0370 CYTOCHROME C OXIDASE SUBUNIT 10, PUTATIVE) was 0.97. For the same compound, the “fold change relative to vehicle control” value (protein LMJF.23.0540, ACETYL-COA SYNTHETASE, PUTATIVE) was 1.01, the “fold change vs vehicle control” value (protein LMJF.23.0560 KINESIN, PUTATIVE) was 0.91 and the “fold change vs vehicle control” value (protein LMJF.23.1410 HY[…], CONSERVED) was 1.12. The “fold change relative to vehicle control” value (protein LMJF.24.0070, HY[…], CONSERVED) was 1.03, the fold change (protein LMJF.24.0140 ANKYRIN/TPR REPEAT PROTEIN) was 0.93 and the fold change (protein LMJF.24.0400 HYPOTHETICAL PROTEIN, CONSERVED (TPR repeat, putative)) was 0.96. The “fold change relative to vehicle control” value (protein LMJF.24.1510, IGE-DEPENDENT HISTAMINE-RELEASING FACTOR, PUTATIVE) was 0.85, the “fold change relative to vehicle control” value (protein LMJF.24.1630, SUCCINATE DEHYDROGENASE FLAVOPROTEIN, PUTATIVE) was 1 and the “fold change relative to vehicle control” value (protein LMJF.24.2060, TRANSKETOLASE) was 1.02. For the same compound, the “fold change relative to vehicle control” value (protein LMJF.25.0010, BETA […] TRANSFERASE) was 1.21, the “fold change relative to vehicle control” value (protein LMJF.25.0910, CYCLOPHILIN A) was 0.9 and the “fold change vs vehicle control” value (protein LMJF.25.1130 […] OXIDASE VII, PUTATIVE) was 1.09. For the same compound, the “fold change relative to vehicle control” value (protein LMJF.25.1180, ATPASE BETA SUBUNIT, PUTATIVE) was 1.06, the “fold change vs vehicle control” value (protein LMJF.25.1610 HY[…], CONSERVED) was 1.08 and the “fold change vs vehicle control” value (protein LMJF.25.1620 HYPOTHETICAL PROTEIN, CONSERVED) was 0.99. The fold change (protein LMJF.25.2340 SERINE/THREONINE-PROTEIN KINASE, PUTATIVE,PROTEIN KINASE, PUTATIVE) was 0.83, the “fold change relative to vehicle control” value (protein LMJF.26.0630, HY[…], CONSERVED) was 1.11 and the “fold change vs vehicle control” value (protein LMJF.26.1240 HEAT SHOCK PROTEIN 70-RELATED PROTEIN) was 1.06. For the same compound, the fold change (protein LMJF.26.1710 […] OXIDASE SUBUNIT V, PUTATIVE) was 1.03, the “fold change vs vehicle control” value (protein LMJF.26.2480 CDP-DIACYLGLYCEROL--INOSITOL 3-[…], PUTATIVE) was 1.06 and the “fold change vs vehicle control” value (protein LMJF.26.2560 HYPOTHETICAL PROTEIN, CONSERVED) was 0.94. The “fold change vs vehicle control” value (protein LMJF.27.0190 PROTEASOME ALPHA 7 SUBUNIT, PUTATIVE) was 0.97, the fold change (protein LMJF.27.0650 HY[…], CONSERVED) was 1.07 and the fold change (protein LMJF.27.0700 HYPOTHETICAL PROTEIN, CONSERVED) was 1.67. For the same compound, the “fold change vs vehicle control” value (protein LMJF.27.0760 GTP-binding protein homologue) was 0.78, the “fold change vs vehicle control” value (protein LMJF.27.1060 CYSTEINE DESULFURASE, PUTATIVE) was 0.93 and the “fold change vs vehicle control” value (protein LMJF.27.1110 MIT[…] BINDING PROTEIN 1,GBP21, MRP1) was 1.07. The fold change (protein LMJF.27.1250 HYPOTHETICAL PROTEIN, CONSERVED (Serine-threonine kinase receptor-associated protein, putative)) was 0.97, the “fold change relative to vehicle control” value (protein LMJF.27.1390, 60S ACIDIC RIBOSOMAL SUBUNIT PROTEIN, PUTATIVE) was 1.05 and the fold change (protein LMJF.27.1460 PROTEASOME REGULATORY NON-ATP-ASE SUBUNIT 3, PUTATIVE) was 0.87.
